≈ marks a conversion by molar mass, not a printed value.
What was measured:
Escherichia coli = assay: in vitro antibacterial evaluation, MIC by broth dilution; type: cell-based; conditions: 18 hours at 35° C.
In short: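 Test organisms, which included recent clinical isolates resistant to methicillin, penicillin and/or vancomycin, were inoculated at 5×10^5 CFU/mL into Muller-Hinton II […] containing antibiotic at 64-0.06 μg/mL. Minimum inhibitory concentrations were then read as the lowest level inhibiting growth.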

Staphylococcus sp. = assay: as above; type: cell-based; conditions: broth dilution, 18 hours at 35° C.
In short: (§1)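 MIC, the lowest antibiotic concentration preventing growth, was read across 64-0.06 μg/mL with 5×10^5 CFU/mL inoculum. Method followed NCCLS M7-A2 broth dilution using Mueller-Hinton II; Gram-positive strains covered recent methicillin-, penicillin- and/or vancomycin-resistant clinical isolates.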

Streptococcus sp. = assay: as above; type: cell-based; conditions: broth dilution, 18 hours at 35° C.
In short: as §1

Enterococcus sp. = assay: as above; type: cell-based; conditions: broth dilution, 18 hours at 35° C.
In short: as §1

[1] = anatomic pathology (histopathology of heart and kidney) in mice; type: in vivo; conditions: CD-1 mice, 20 mg/kg intravenously daily for 9 days, necropsy day 10, microscopic histopathology
Protocol: Samples of tissues from necropsied mice were formalin-fixed, paraffin-embedded, sectioned, stained with hematoxylin and eosin, and examined microscopically. Histopathologic findings were recorded. These findings were subjectively graded on a scale corresponding to slight, mild, moderate, marked and severe as compared to untreated controls.

[2] = clinical pathology (serum clinical chemistry) in mice; type: in vivo; conditions: CD-1 mice, 20 mg/kg intravenously daily for 9 days, sera day 10
Protocol: 20-day-old CD-1 mice were divided into a vehicle control group (5 mice) and a treatment group (5 mice). Samples of glycopeptide antibiotics were administered at 20 mg/kg intravenously daily for 9 days.

CC(C)CC(=O)OC1C(OC2C(CO)OC(Oc3ccc(CC4NC(=O)C(C(C)c5ccccc5)NC(=O)CNC(=O)C(CO)NC(=O)C(CC5CNC(=N)N5C5OC(CO)C(O)C(O)C5O)NC(=O)C(CC5CNC(=N)N5)NC4=O)cc3)C(O)C2O)OC(CO)C(O)C1O (stereo not drawn) [Example 277b, Cyclo[3-(2-iminoimidazolidin-4-yl)alanyl-3-(3-hexogyranosyl-2-iminoimidazolidin-4-yl)-alanylserylglycyl-β-methylphenylalanyl-O-[4-O-[2-O-(3-methylbutanoyl)hexopyranosyl]-hexopyranosyl]tyrosyl]]
MIC Escherichia coli (ATCC 25922) (Escherichia coli; Escherichia coli (ATCC 25922)): >64 µg/mL
MIC Escherichia coli (GC 4559) (Escherichia coli; Escherichia coli (GC 4559)): >64 µg/mL
MIC Escherichia coli (GC 4560) (Escherichia coli; Escherichia coli (GC 4560)): 32 µg/mL (≈ 23.7 µM)
MIC Coagulase Negative Staphylococcus (GC 4547) (Staphylococcus sp.): >64 µg/mL
MIC Coagulase Negative Staphylococcus (GC 4548) (Staphylococcus sp.): >64 µg/mL
MIC Coagulase Negative Staphylococcus (GC 4549) (Staphylococcus sp.): >64 µg/mL
MIC Coagulase Negative Staphylococcus (GC 4551) (Staphylococcus sp.): >64 µg/mL
MIC Coagulase Negative Staphylococcus (GC 6257) (Staphylococcus sp.): >64 µg/mL
MIC Staphylococcus aureus (ATCC 29213) (Staphylococcus sp.): >64 µg/mL
MIC Staphylococcus aureus (GC 1131) (Staphylococcus sp.): >64 µg/mL
MIC Staphylococcus aureus (GC 3051) (Staphylococcus sp.): >64 µg/mL
MIC Staphylococcus aureus (GC 3053) (Staphylococcus sp.): >64 µg/mL
MIC Staphylococcus aureus (GC 4541) (Staphylococcus sp.): >64 µg/mL
MIC Staphylococcus aureus (GC 4542) (Staphylococcus sp.): >64 µg/mL
MIC Staphylococcus aureus (GC 4544) (Staphylococcus sp.): >64 µg/mL
MIC Staphylococcus aureus (GC 4545) (Staphylococcus sp.): >64 µg/mL
MIC Staphylococcus aureus-SMITH (GC 4543) (Staphylococcus sp.): >64 µg/mL
MIC Staphylococcus haemolyticus (GC 4546) (Staphylococcus sp.): >64 µg/mL
MIC Staphylococcus aureus (ATCC 29213) (Staphylococcus sp.; strain ATCC 29213): >64 µg/mL
MIC Staphylococcus aureus (GC 1131) (Staphylococcus sp.; strain GC 1131): >64 µg/mL
MIC Staphylococcus aureus (GC 3051) (Staphylococcus sp.; strain GC 3051): >64 µg/mL
MIC Staphylococcus aureus (GC 3053) (Staphylococcus sp.; strain GC 3053): >64 µg/mL
MIC Staphylococcus aureus (GC 4541) (Staphylococcus sp.; strain GC 4541): >64 µg/mL
MIC Staphylococcus aureus (GC 4542) (Staphylococcus sp.; strain GC 4542): >64 µg/mL
MIC Staphylococcus aureus (GC 4544) (Staphylococcus sp.; strain GC 4544): >64 µg/mL
MIC Staphylococcus aureus (GC 4545) (Staphylococcus sp.; strain GC 4545): >64 µg/mL
MIC Staphylococcus haemolyticus (GC 4546) (Staphylococcus sp.; strain GC 4546): >64 µg/mL
MIC Coagulase Negative Staphylococcus (GC 4547) (Staphylococcus sp.; strain GC 4547): >64 µg/mL
MIC Coagulase Negative Staphylococcus (GC 4548) (Staphylococcus sp.; strain GC 4548): >64 µg/mL
MIC Coagulase Negative Staphylococcus (GC 4549) (Staphylococcus sp.; strain GC 4549): >64 µg/mL
MIC Coagulase Negative Staphylococcus (GC 4551) (Staphylococcus sp.; strain GC 4551): >64 µg/mL
MIC Coagulase Negative Staphylococcus (GC 6257) (Staphylococcus sp.; strain GC 6257): >64 µg/mL
MIC Staphylococcus aureus-SMITH (GC 4543) (Staphylococcus sp.; strain SMITH GC 4543): >64 µg/mL
MIC Streptococcus pneumoniae (ATCC 6301) (Streptococcus sp.; strain ATCC 6301): 64 µg/mL (≈ 47.5 µM)
MIC Streptococcus pneumoniae (GC 1894) (Streptococcus sp.; strain GC 1894): >64 µg/mL
MIC Streptococcus pyogenes (GC 4563) (Streptococcus sp.; strain GC 4563): >64 µg/mL
MIC Streptococcus agalactiae (GC 4564) (Streptococcus sp.; strain GC 4564): >64 µg/mL
MIC Streptococcus pneumoniae (GC 4565) (Streptococcus sp.; strain GC 4565): >64 µg/mL
MIC Enterococcus avium (GC 4558) (Enterococcus sp.; Enterococcus avium (GC 4558)): >64 µg/mL
MIC Enterococcus faecalis (ATCC 29212) (Enterococcus sp.; Enterococcus faecalis (ATCC 29212)): >64 µg/mL
MIC Enterococcus faecalis (GC 4553) (Enterococcus sp.; Enterococcus faecalis (GC 4553)): >64 µg/mL
MIC Enterococcus faecalis (GC 4554) (Enterococcus sp.; Enterococcus faecalis (GC 4554)): >64 µg/mL
MIC Enterococcus faecalis (GC 6189) (Enterococcus sp.; Enterococcus faecalis (GC 6189)): >64 µg/mL
MIC Enterococcus faecium (GC 2243) (Enterococcus sp.; Enterococcus faecium (GC 2243)): >64 µg/mL
MIC Enterococcus faecium (GC 4556) (Enterococcus sp.; Enterococcus faecium (GC 4556)): >64 µg/mL
MIC Enterococcus faecium (GC 4557) (Enterococcus sp.; Enterococcus faecium (GC 4557)): >64 µg/mL
MIC Enterococcus faecalis (ATCC 29212) (Enterococcus sp.; strain ATCC 29212): >64 µg/mL
MIC Enterococcus faecalis (GC 2242) (Enterococcus sp.; strain GC 2242): >64 µg/mL
MIC Enterococcus faecium (GC 2243) (Enterococcus sp.; strain GC 2243): >64 µg/mL
MIC Enterococcus faecalis (GC 2691) (Enterococcus sp.; strain GC 2691): >64 µg/mL
MIC Enterococcus faecalis (GC 3059) (Enterococcus sp.; strain GC 3059): >64 µg/mL
MIC Enterococcus faecalis (GC 4552) (Enterococcus sp.; strain GC 4552): >64 µg/mL
MIC Enterococcus faecalis (GC 4553) (Enterococcus sp.; strain GC 4553): >64 µg/mL
MIC Enterococcus faecalis (GC 4554) (Enterococcus sp.; strain GC 4554): >64 µg/mL
MIC Enterococcus faecium (GC 4556) (Enterococcus sp.; strain GC 4556): >64 µg/mL
MIC Enterococcus faecium (GC 4557) (Enterococcus sp.; strain GC 4557): >64 µg/mL
MIC Enterococcus avium (GC 4558) (Enterococcus sp.; strain GC 4558): >64 µg/mL
MIC Enterococcus faecalis (GC 6189) (Enterococcus sp.; strain GC 6189): >64 µg/mL
Anatomical Pathology (Day 10), Heart [1]: 0
Anatomical Pathology (Day 10), Kidney [1]: +
Clinical Chemistry (Day 10) % of Control, ALT [2]: +164%
Clinical Chemistry (Day 10) % of Control, AST [2]: +138%
Clinical Chemistry (Day 10) % of Control, BUN [2]: +113%

From patent publication US6914045B2, “Glycopeptide antibiotics” (Wyeth Holdings Corporation, priority 2001, dated 2005)
